Measured values taken from PubChem BioAssay AID330 (DTP/NCI, 2004).
“And” between values parts separate entries of the source, which are not always exact repeats. Identical values can stand only once. Toxic doses and inconclusive results are not listed. The calls were made as follows: active = survival T/C of 150% or more; inactive = T/C below 125% in these data.

Tested on: P388 leukemia ip, CD2F1 mice, survival T/C
Assay: NCI In Vivo Anticancer Drug Screen. Data for tumor model P388 Leukemia (intraperitoneal) in CD2F1 (CDF1) mice
Conditions: endpoint: median survival time, higher = longer survival
Procedure, shortened: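 Mice carrying the transplanted tumor received test compound or vehicle. Survival was recorded in each group, and the value is the treated-group measurement divided by that of the vehicle-treated control group.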

[1] = dose: 100.0 mg/kg/injection, schedule: Q04DX003 (ip), vehicle: saline
[2] = dose: 50.0 mg/kg/injection, schedule: Q01DX009 (ip), vehicle: Klucel (hydroxypropylcellulose) (HPC)
[3] = dose: 100.0 mg/kg/injection, schedule: Q01DX009 (ip), vehicle: Klucel (hydroxypropylcellulose) (HPC)
[4] = dose: 200.0 mg/kg/injection, schedule: Q01DX009 (ip), vehicle: Klucel (hydroxypropylcellulose) (HPC)
[5] = dose: 60.0 mg/kg/injection, schedule: Q01DX005 (ip), vehicle: saline with Tween-80
[6] = dose: 120.0 mg/kg/injection, schedule: Q01DX005 (ip), vehicle: saline with Tween-80
[7] = dose: 50.0 mg/kg/injection, schedule: Q01DX009 (ip), vehicle: saline with Tween-80
[8] = dose: 100.0 mg/kg/injection, schedule: Q01DX009 (ip), vehicle: saline with Tween-80
[9] = dose: 200.0 mg/kg/injection, schedule: Q01DX009 (ip), vehicle: saline with Tween-80
[10] = dose: 60.0 mg/kg/injection, schedule: Q01DX005 (ip), vehicle: Klucel (hydroxypropylcellulose) (HPC)
[11] = dose: 120.0 mg/kg/injection, schedule: Q01DX005 (ip), vehicle: Klucel (hydroxypropylcellulose) (HPC)
[12] = dose: 240.0 mg/kg/injection, schedule: Q01DX005 (ip), vehicle: saline with Tween-80
[13] = dose: 100.0 mg/kg/injection, schedule: Q01DX001 (ip), vehicle: Klucel (hydroxypropylcellulose) (HPC)
[14] = dose: 200.0 mg/kg/injection, schedule: Q01DX001 (ip), vehicle: Klucel (hydroxypropylcellulose) (HPC)
[15] = dose: 400.0 mg/kg/injection, schedule: Q01DX001 (ip), vehicle: Klucel (hydroxypropylcellulose) (HPC)
[16] = dose: 240.0 mg/kg/injection, schedule: Q01DX005 (ip), vehicle: Klucel (hydroxypropylcellulose) (HPC)

Measured: T/C

CN1C(Cc2ccccc2)N(S(=O)(=O)C2C=CC=CC=C2)CC1(C)C (centres undefined)
inactive: [1] 101 % of control | dose: 200.0 mg/kg/injection, schedule: Q04DX003 (ip), vehicle: saline 99 % of control | dose: 400.0 mg/kg/injection, schedule: Q04DX003 (ip), vehicle: saline 93 % of control

OCCN1CCN(CC/C=C2/c3ccccc3Sc3ccc(C(F)(F)F)cc32)CC1
inactive: dose: 10.0 mg/kg/injection, schedule: Q04DX003 (ip), vehicle: saline 115 % of control and 123 % of control | dose: 20.0 mg/kg/injection, schedule: Q04DX003 (ip), vehicle: saline 115 % of control | dose: 80.0 mg/kg/injection, schedule: Q04DX003 (ip), vehicle: saline 91 % of control

O=[N+]([O-])c1ccc(C(S(=O)(=O)Cc2ccccc2)S(=O)(=O)Cc2ccccc2)cc1
inactive: [2] 93 % of control | [3] 89 % of control | [4] 90 % of control

O=[N+]([O-])c1cc(Cl)ccc1-c1ccccc1
inactive: [3] 87 % of control | [4] 93 % of control | dose: 400.0 mg/kg/injection, schedule: Q01DX009 (ip), vehicle: Klucel (hydroxypropylcellulose) (HPC) 101 % of control

CC(C(=O)O)N1C(=O)C=CC1=O (centres undefined)
inactive: dose: 12.5 mg/kg/injection, schedule: Q01DX009 (ip), vehicle: saline with Tween-80 97 % of control | dose: 25.0 mg/kg/injection, schedule: Q01DX009 (ip), vehicle: saline with Tween-80 91 % of control

CCN(Cc1c(C)nc2ccc(N(C)C)cc2c1Cl)CN(CC)Cc1c(C)nc2ccc(N(C)C)cc2c1Cl
inactive: dose: 100.0 mg/kg/injection, schedule: Q01DX002 (ip), vehicle: saline with Tween-80 100 % of control | dose: 200.0 mg/kg/injection, schedule: Q01DX002 (ip), vehicle: saline with Tween-80 94 % of control | dose: 400.0 mg/kg/injection, schedule: Q01DX002 (ip), vehicle: saline with Tween-80 98 % of control

CCOC(=O)C(Br)CN1C(=O)c2ccccc2C1=O (centres undefined)
inactive: [5] 97 % of control | [6] 115 % of control

O=C(CC(=NCCN=C(CC(=O)c1ccccc1)c1ccccc1)c1ccccc1)c1ccccc1
inactive: [7] 112 % of control | [8] 100 % of control | [9] 100 % of control

CCOCCNc1ncnc2c1cnn2C
inactive: dose: 12.5 mg/kg/injection, schedule: Q04DX003 (ip), vehicle: saline 91 % of control | dose: 25.0 mg/kg/injection, schedule: Q04DX003 (ip), vehicle: saline 88 % of control | dose: 50.0 mg/kg/injection, schedule: Q04DX003 (ip), vehicle: saline 93 % of control | [1] 95 % of control

O=C1C2=C(Nc3cc([N+](=O)[O-])ccc3N2)OC1c1ccccn1 (centres undefined)
inactive: dose: 30.0 mg/kg/injection, schedule: Q01DX005 (ip), vehicle: Klucel (hydroxypropylcellulose) (HPC) 119 % of control | [10] 122 % of control | [11] 121 % of control

COC(=O)C1=COC(C)[C@H]2CN3CCc4c([nH]c5cc(OC)ccc45)C3CC12 (some centres undefined)
inactive: dose: 15.0 mg/kg/injection, schedule: Q01DX005 (ip), vehicle: saline with Tween-80 92 % of control | dose: 30.0 mg/kg/injection, schedule: Q01DX005 (ip), vehicle: saline with Tween-80 91 % of control | [5] 88 % of control

NNC(=O)C(=O)NNC1CCCCC1
inactive: [3] 101 % of control | [4] 104 % of control

CC(C)CC(=O)CC(=O)CCC(=O)Nc1ccc(Cl)cc1Cl
inactive: [5] 100 % of control | [6] 108 % of control | [12] 100 % of control

CCOC(=O)c1ccc2c(=O)[nH]nc(CO)c2c1
inactive: dose: 50.0 mg/kg/injection, schedule: Q01DX005 (ip), vehicle: saline with Tween-80 104 % of control | dose: 100.0 mg/kg/injection, schedule: Q01DX005 (ip), vehicle: saline with Tween-80 102 % of control | dose: 200.0 mg/kg/injection, schedule: Q01DX005 (ip), vehicle: saline with Tween-80 96 % of control

CCSc1nc2c(N)nc(N)nc2[nH]c1=O
inactive: dose: 100.0 mg/kg/injection, schedule: Q04DX003 (ip), vehicle: Klucel (hydroxypropylcellulose) (HPC) 99 % of control | dose: 200.0 mg/kg/injection, schedule: Q04DX003 (ip), vehicle: Klucel (hydroxypropylcellulose) (HPC) 86 % of control

Cn1c(N)c(C(=O)/C=C/c2ccccc2)c(=O)n(C)c1=O
inactive: dose: 12.5 mg/kg/injection, schedule: Q01DX009 (ip), vehicle: Klucel (hydroxypropylcellulose) (HPC) 99 % of control and 124 % of control | dose: 25.0 mg/kg/injection, schedule: Q01DX009 (ip), vehicle: Klucel (hydroxypropylcellulose) (HPC) 120 % of control and 93 % of control | [3] 93 % of control and 113 % of control and 92 % of control | [4] 116 % of control

Cc1nn2cc(-c3ccc4ccccc4c3)nc2[nH]c1=O
inactive: [13] 100 % of control | [14] 99 % of control | [15] 100 % of control

COc1cccc(/C=C/C(=O)O)c1OC
inactive: dose: 25.0 mg/kg/injection, schedule: Q01DX009 (ip), vehicle: water 98 % of control | dose: 50.0 mg/kg/injection, schedule: Q01DX009 (ip), vehicle: water 91 % of control | dose: 100.0 mg/kg/injection, schedule: Q01DX009 (ip), vehicle: water 94 % of control | dose: 200.0 mg/kg/injection, schedule: Q01DX009 (ip), vehicle: water 100 % of control | dose: 400.0 mg/kg/injection, schedule: Q01DX009 (ip), vehicle: water 98 % of control

O=[N+]([O-])c1cccnc1N=Nc1c(O)[nH]c2ccccc12
inactive: [5] 100 % of control | [6] 101 % of control | [12] 110 % of control

O=c1cc(-c2ccccc2)[nH]c(=S)[nH]1
inactive: dose: 50.0 mg/kg/injection, schedule: Q01DX001 (ip), vehicle: Klucel (hydroxypropylcellulose) (HPC) 103 % of control | [13] 100 % of control | [14] 99 % of control | [15] 106 % of control

C=C(C)Cn1c(=O)n(CC)c(=O)c2[nH]c(Cl)nc21
inactive: dose: 16.0 mg/kg/injection, schedule: Q01DX009 (ip), vehicle: Klucel (hydroxypropylcellulose) (HPC) 108 % of control | dose: 32.0 mg/kg/injection, schedule: Q01DX009 (ip), vehicle: Klucel (hydroxypropylcellulose) (HPC) 107 % of control | [2] 95 % of control | dose: 64.0 mg/kg/injection, schedule: Q01DX009 (ip), vehicle: Klucel (hydroxypropylcellulose) (HPC) 117 % of control | [3] 100 % of control | [4] 101 % of control

CC1=c2c(oc3cc(O)c(Nc4c(C)cc(O)cc4O)c(C)c23)=CC(=O)C1=Nc1c(C)cc(O)cc1O
inactive: [10] 95 % of control | [11] 89 % of control | [16] 95 % of control

CC(=O)CC(=O)CCCCCCC(=O)O
inactive: [7] 103 % of control | [8] 100 % of control | [9] 100 % of control

CC(=O)Nc1cccc(N(CCOS(C)(=O)=O)CCOS(C)(=O)=O)c1
active: dose: 20.0 mg/kg/injection, schedule: Q04DX003 (ip), vehicle: saline with Tween-80 172 % of control

Clc1ccccc1OCc1cnc[nH]1
inactive: dose: 25.0 mg/kg/injection, schedule: Q01DX009 (ip), vehicle: saline 102 % of control | dose: 50.0 mg/kg/injection, schedule: Q01DX009 (ip), vehicle: saline 111 % of control | dose: 100.0 mg/kg/injection, schedule: Q01DX009 (ip), vehicle: saline 117 % of control

CCOC(=O)CCC(=O)Oc1cccc2c1C(=O)c1c(OC(=O)CCC(=O)OCC)cccc1C2=O
inactive: [10] 91 % of control | [11] 97 % of control | [16] 91 % of control

O=C1CC(C(=O)O)C(C(=O)O)O1 (centres undefined)
inactive: dose: 50.0 mg/kg/injection, schedule: Q01DX005 (ip), vehicle: saline 100 % of control | dose: 100.0 mg/kg/injection, schedule: Q01DX005 (ip), vehicle: saline 111 % of control | dose: 200.0 mg/kg/injection, schedule: Q01DX005 (ip), vehicle: saline 93 % of control

Cc1cc(NC(=O)COCC(=O)O)no1
inactive: [10] 101 % of control | [11] 101 % of control | [16] 92 % of control

CC(Cc1ccccc1)NC(=O)C1CC2CCCCN2C1C (centres undefined)
inactive: [5] 97 % of control | [6] 95 % of control

O=C1NC2C=CN(Cc3ccccc3)C=C2C(=O)N2CCCC12 (centres undefined)
inactive: [5] 101 % of control | [6] 101 % of control | [12] 97 % of control

CCOCC#CC(OCC)OCC
inactive: dose: 60.0 mg/kg/injection, schedule: Q01DX005 (ip), vehicle: saline 101 % of control | dose: 120.0 mg/kg/injection, schedule: Q01DX005 (ip), vehicle: saline 99 % of control | dose: 240.0 mg/kg/injection, schedule: Q01DX005 (ip), vehicle: saline 99 % of control
